The record followed here is patent EP1200395B1, “UREA DERIVATIVES AS INHIBITORS OF CCR-3 RECEPTOR” (KIRIN BEER KABUSHIKI KAISHA, priority 1999, dated 2001).

The structures appear in SMILES notation. Structures can show the parent of a compound that is named as a salt.

The target of this assay is T1, CCR-3 (Homo sapiens, UniProt P51677).
T1 sequence (P51677 1-355): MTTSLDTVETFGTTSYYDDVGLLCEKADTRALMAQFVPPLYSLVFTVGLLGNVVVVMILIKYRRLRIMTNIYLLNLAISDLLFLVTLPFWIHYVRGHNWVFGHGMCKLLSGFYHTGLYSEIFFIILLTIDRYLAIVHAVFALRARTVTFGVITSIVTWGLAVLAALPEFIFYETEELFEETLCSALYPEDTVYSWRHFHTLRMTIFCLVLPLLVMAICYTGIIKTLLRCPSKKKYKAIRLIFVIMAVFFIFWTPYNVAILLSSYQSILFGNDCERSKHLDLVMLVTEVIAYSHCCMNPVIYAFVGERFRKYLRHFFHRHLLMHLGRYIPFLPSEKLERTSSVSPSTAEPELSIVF
Kind of assay: Eotaxin-induced chemotaxis of CCR-3 transfectant cells (CCR3/U937). It is filed as cell-based. The conditions noted are these: eotaxin 1 x 10^-9 M; for Chemotaxis Assay 10 µM (inhibition %) / inhibition at 10 µM: 10 µM test compound; for Chemotaxis Assay 0.1 µg/ml (inhibition %): test compound 0.1 µg/ml, CCR3/U937 transfectants, 37 °C, 1 hour; for inhibition at 10 µM: U-937. More on the design: expressed in transfected cells; host or cells: U937.

As a reminder, the inhibition is how much of the control response was suppressed.

`O=C(O)CCCN(CCCNC(=O)Nc1ccc(Br)cc1)Cc1ccc2c(c1)OCO2` [Compound 70]: the “Chemotaxis Assay 10 µM (inhibition %)” value (CCR3/U937 cells (Table 3a)) is 89%.
Take `O=C(NCCCN(Cc1ccc(C(=O)O)cc1)C1CCCc2ccccc21)Nc1ccc(Br)cc1` (centres unmarked) [Compound 223]: the “Chemotaxis Assay 10 µM (inhibition %)” value (CCR3/U937 cells (Table 3a)) amounted to 86%.
As for `CC[N+](CCCNC(=O)Nc1ccc(Br)cc1)(CCc1ccc(Cl)c(Cl)c1)CC1CCC1.[I-]` (centres unmarked) [compound 377], the “Chemotaxis Assay 0.1 µg/ml (inhibition %)” value came to 46%.
As to `CCN(CCCNC(=O)Nc1ccccc1)CCc1ccccc1` [Compound 11], the “Chemotaxis Assay 10 µM (inhibition %)” value (CCR3/U937 cells (Table 3a)) is on record as 86%.
For `CC[N+](CCCNC(=O)Nc1ccccc1)(CCc1ccc(Cl)cc1)Cc1ccc([N+](=O)[O-])cc1.[I-]` (centres unmarked) [compound 337], the “Chemotaxis Assay 10 µM (inhibition %)” value (CCR3/U937 cells (Table 3c)) is reported as 99%.
Regarding `COC(=O)CCCN(CCCNC(=O)Nc1ccccc1)CCc1ccc(Cl)cc1` [Compound 49], where the note is “CCR3/U937 cells (Table 3a)”, the “Chemotaxis Assay 10 µM (inhibition %)” value was determined as 100%.
For `CCOC(=O)c1ccc(CN(CCCNC(=O)Nc2ccccc2)CCc2ccc(Cl)cc2)o1` [Compound 22], where the note is “CCR3/U937 cells (Table 3a)”, the inhibition at 10 µM amounted to 25%.
Molecule `CC[N+](CCCNC(=O)Nc1ccc(Br)cc1)(CCCC(=O)O)[C@@H](C)c1ccccc1` (stereo partly drawn) [Compound 315, [3-(4-Bromophenylureido)propyl][(1S)-1-phenylethyl][3-(carboxy)propyl]ethylammonium trifluoroacetate] registered an inhibition at 10 µM (CCR3/U937 cells (Table 3c)) of 63%.
For the molecule `CC[N+](CCCNC(=O)Nc1ccccc1)(CCc1ccc(Cl)cc1)CC1CCCCC1.[I-]` (centres unmarked) [compound 319], the “Chemotaxis Assay 10 µM (inhibition %)” value (CCR3/U937 cells (Table 3c)) is 100%.
`CCC(c1ccccc1)N(CCCNC(=O)Nc1ccc(Br)cc1)CCCC(=O)O` (centres unmarked) [Compound 271]: the “Chemotaxis Assay 10 µM (inhibition %)” value (CCR3/U937 cells (Table 3a)) is reported as 100%.
For the molecule `CC[N+](CCCNC(=O)Nc1ccccc1)(CCc1ccc(Cl)cc1Cl)CC1CCC1.[I-]` (centres unmarked) [compound 419], the “Chemotaxis Assay 0.1 µg/ml (inhibition %)” value is 76%.
Regarding `CC[N+](CCCNC(=O)Nc1ccccc1)(CCc1ccc(Cl)cc1)CCc1ccc(Cl)cc1.[I-]` [compound 317], the “Chemotaxis Assay 10 µM (inhibition %)” value (CCR3/U937 cells (Table 3c)) is 100%.
`CC(c1cccc2ccccc12)N(CCCNC(=O)Nc1ccc(Br)cc1)CCCC(=O)O` (centres unmarked) [Compound 268]: the “Chemotaxis Assay 10 µM (inhibition %)” value (CCR3/U937 cells (Table 3a)) is 100%.
Take `NC(=O)CCCN(CCCNC(=O)Nc1ccc(Br)cc1)C1CCCc2ccccc21` (centres unmarked) [Compound 193, 4-[[3-(4-Bromophenylureido)propyl](1,2,3,4-tetrahydro-1-naphthyl)amino]butanamide]: for the setting “CCR3/U937 cells (Table 3a)”, testing at 10 µM gave an inhibition of 100%.
With `COC(=O)CCCN(CCCNC(=O)Nc1ccc(Br)cc1)CCc1ccccc1` [Compound 42], where the note is “CCR3/U937 cells (Table 3a)”, the “Chemotaxis Assay 10 µM (inhibition %)” value is listed as 96%.
As for `CC[N+](CCCNC(=O)Nc1ccc(Br)cc1)(CCOCCOC)CCc1cccc(F)c1.[I-]` (centres unmarked) [compound 375], the “Chemotaxis Assay 0.1 µg/ml (inhibition %)” value amounted to 91%.
On to `CCN(CCCNC(=O)Nc1ccccc1Br)C1CCCc2ccccc21` (centres unmarked) [Compound 191], for which the “Chemotaxis Assay 10 µM (inhibition %)” value (CCR3/U937 cells (Table 3a)) is on record as 100%.
For the molecule `CC(C)(c1ccccc1)N(CCCNC(=O)Nc1ccccc1Br)CCCC(=O)O` [Compound 195], the “Chemotaxis Assay 10 µM (inhibition %)” value (CCR3/U937 cells (Table 3a)) was determined as 100%.
Consider `COC(=O)CCCN(CCCNC(=O)Nc1ccc(Br)cc1)C1CCCc2ccccc21` (centres unmarked) [Compound 29, methyl 4-[[3-(4-bromophenylureido)propyl](1,2,3,4-tetrahydro-1-naphthyl)amino]butylate], for which the “Chemotaxis Assay 10 µM (inhibition %)” value (CCR3/U937 cells (Table 3a)) came to 100%.
Still for that read-out and setting: the figure for `O=C(O)CCCN(CCCNC(=O)Nc1ccc(Br)cc1)C1Cc2ccccc2C1` [Compound 175] is 100%.
Consider `CC[N+](CCCNC(=O)Nc1ccccc1)(CCc1cccc(Cl)c1)Cc1ccccc1.[I-]` (centres unmarked) [compound 328], for which the “Chemotaxis Assay 10 µM (inhibition %)” value (CCR3/U937 cells (Table 3c)) worked out at 100%.
The same measure, in the same setting: the figure for `CC[N+](CCCNC(=O)Nc1ccccc1)(CCc1ccc(Cl)cc1)Cc1cccc(C)c1.[I-]` (centres unmarked) [compound 347] is 100%.
Turning to `C=C(C)C[N+](CC)(CCCNC(=O)Nc1ccc(Cl)c(Cl)c1)CCc1ccccc1.[I-]` (centres unmarked) [compound 368], the “Chemotaxis Assay 0.1 µg/ml (inhibition %)” value is 88%.
Consider `CC[N+](CCCNC(=O)Nc1ccc(OC)cc1)(CCc1ccc(Cl)cc1)Cc1ccccc1.[I-]` (centres unmarked) [compound 324], for which the “Chemotaxis Assay 10 µM (inhibition %)” value (CCR3/U937 cells (Table 3c)) turned out to be 100%.
As for `CC[N+](CCCNC(=O)Nc1ccccc1)(CCOCCOC)CCc1cccc(F)c1.[I-]` (centres unmarked) [compound 416], the “Chemotaxis Assay 0.1 µg/ml (inhibition %)” value worked out at 69%.
For the molecule `CCN(CCCNC(=O)Nc1ccc([N+](=O)[O-])cc1)CCc1ccc(Cl)cc1` [Compound 2, N-(4-Nitrophenylcarbamoyl)-N'-[2-(4-chlorophenyl)ethyl]-N'-ethyl-1,3-diaminopropane], the inhibition at 10 µM (CCR3/U937 cells (Table 3a)) was determined as 100%.
In the case of `CC[N+](CCCNC(=O)Nc1ccccc1)(CCc1ccc(Cl)cc1)Cc1cccc(C(=O)OC)c1.[I-]` (centres unmarked) [compound 332], the “Chemotaxis Assay 10 µM (inhibition %)” value (CCR3/U937 cells (Table 3c)) turned out to be 100%.
As to `O=C(O)CCCN(CCCNC(=O)Nc1ccccc1-c1ccccc1)C1CCCc2ccccc21` (centres unmarked) [Compound 85], the “Chemotaxis Assay 10 µM (inhibition %)” value (CCR3/U937 cells (Table 3a)) is reported as 19%.
Still for that read-out and setting: then `COC(=O)CCCN(CCCNC(=O)Nc1ccc(C)cc1)C1CCCc2ccccc21` (centres unmarked) [Compound 34, Methyl 4-[[3-(4-methylphenylureido)propyl](1,2,3,4-tetrahydro-1-naphthyl)amino]butylate], with 96%.
`CC[N+](CCCNC(=O)Nc1ccccc1)(CCc1ccc(Cl)cc1)Cc1cc2c(cc1Cl)OCO2.[I-]` (centres unmarked) [compound 348]: the “Chemotaxis Assay 10 µM (inhibition %)” value (CCR3/U937 cells (Table 3c)) was found to be 100%.
Take `Cc1cccc(NC(=O)NCCCN(CCCC(=O)O)C2CCCc3ccccc32)c1` (centres unmarked) [Compound 83]: the “Chemotaxis Assay 10 µM (inhibition %)” value (CCR3/U937 cells (Table 3a)) was 100%.
Consider `CCC(CC)C[N+](CC)(CCCNC(=O)Nc1ccc(C#N)cc1)CCc1cccc(Cl)c1.[I-]` (centres unmarked) [compound 402], for which the “Chemotaxis Assay 0.1 µg/ml (inhibition %)” value was determined as 71%.
As to `CC[N+](CCCNC(=O)Nc1ccccc1)(CCc1ccc(Cl)cc1)Cc1ccc(-c2ccccc2)cc1.[I-]` (centres unmarked) [compound 330], the “Chemotaxis Assay 10 µM (inhibition %)” value (CCR3/U937 cells (Table 3c)) was 100%.
Take `CC[N+](CCCNC(=O)Nc1ccccc1)(CCc1ccc(Cl)cc1)Cc1ccc(OC)cc1.[I-]` (centres unmarked) [compound 344]: where the note is “CCR3/U937 cells (Table 3c)”, the “Chemotaxis Assay 10 µM (inhibition %)” value was found to be 100%.
Consider `CC[N+](CCF)(CCCNC(=O)Nc1ccc(C#N)cc1)CCc1cccc(Cl)c1.[I-]` (centres unmarked) [compound 403], for which the “Chemotaxis Assay 0.1 µg/ml (inhibition %)” value is 77%.
Regarding `COC(=O)CCCCN(CCCNC(=O)Nc1ccccc1)CCc1ccc(Cl)cc1` [Compound 241], the “Chemotaxis Assay 10 µM (inhibition %)” value (CCR3/U937 cells (Table 3a)) is reported as 100%.
In turn, `CC[N+](CC)(CCCNC(=O)Nc1ccccc1)CCc1cccc(Cl)c1` [Compound 309, [3-(Phenylureido)propyl][2-(3-chlorophenyl)ethyl]diethylammonium iodide] returned an inhibition at 10 µM (CCR3/U937 cells (Table 3c)) of 100%.
Consider `CC[N+](CCCNC(=O)Nc1ccccc1)(CCc1ccc(Cl)c(Cl)c1)CCC(C)C.[I-]` (centres unmarked) [compound 408], for which the “Chemotaxis Assay 0.1 µg/ml (inhibition %)” value is 74%.
Consider `CC[N+](CCCNC(=O)Nc1ccccc1)(CCc1ccc(Cl)cc1)Cc1ccccc1-c1ccccc1.[I-]` (centres unmarked) [compound 341], for which the “Chemotaxis Assay 10 µM (inhibition %)” value (CCR3/U937 cells (Table 3c)) stood at 100%.
In the case of `CC[N+](CCCCC(=O)OC)(CCCNC(=O)Nc1ccccc1)CCc1ccc(Cl)cc1` (centres unmarked) [Compound 320, [3-(Phenylureido)propyl][2-(4-chlorophenyl)ethyl][4-(methoxycarbonyl)butyl] ethylammonium iodide], the inhibition at 10 µM (CCR3/U937 cells (Table 3c)) worked out at 100%.
Turning to `COC(=O)CCCN(CCCNC(=O)Nc1ccc(Br)cc1)C1CCc2ccccc21` (centres unmarked) [Compound 172, Methyl 4-[[3-(4-bromophenylureido)propyl](1-indanyl)amino]burylate], the “Chemotaxis Assay 10 µM (inhibition %)” value (CCR3/U937 cells (Table 3a)) is recorded as 100%.
